This note sets out measurements from ChEMBL document CHEMBL1128145, “N-(carbobenzyloxy)isatin: A slow binding -keto lactam inhibitor of -chymotrypsin” (Bioorg Med Chem Lett, 1995).

A value given as a limit tells only on which side of the number the result lay.

For test [1], the target named is T1, Chymotrypsinogen B (Homo sapiens, UniProt P17538).
Description: (§1) Rate constant against alpha-chymotrypsin
Test [2] concerns the target T1, Chymotrypsinogen B. This is another data set of the same source.
Description: Rate constant against alpha-chymotrypsin from time dependent inhibition and reactivation data
The target of test [3] is T1, Chymotrypsinogen B. The source holds these as a separate data set.
Description: as §1
In test [4] the target is T1, Chymotrypsinogen B. This is another data set of the same source.
Description: Rate constant against Alpha-chymotrypsin from time dependent inhibition and reactivation data
Test [5] has as its target T1, Chymotrypsinogen B. Description: Inhibition constant against alpha-chymotrypsin.
Test [6] concerns the target T1, Chymotrypsinogen B. Put plainly: Inhibition constant against Alpha-chymotrypsin inhibitor was determined.

T1 sequence (P17538 34-164 limits assumed, other chains not shown): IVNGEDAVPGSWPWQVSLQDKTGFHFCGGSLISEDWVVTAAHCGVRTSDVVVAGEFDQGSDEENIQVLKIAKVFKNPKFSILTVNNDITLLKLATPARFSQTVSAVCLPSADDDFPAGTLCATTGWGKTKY
T1 sequence (P17538 167-263 limits assumed, other chains not shown): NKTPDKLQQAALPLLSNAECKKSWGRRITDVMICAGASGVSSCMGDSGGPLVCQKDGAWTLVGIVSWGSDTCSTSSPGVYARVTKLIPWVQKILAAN

With `O=C1C(=O)N(C(=O)OCc2ccccc2)c2ccccc21`, the k on was found to be 254 M⁻¹ s⁻¹ on Chymotrypsinogen B [1] and 7.63 M⁻¹ s⁻¹ on Chymotrypsinogen B [4]. Also, the k off amounted to 4.01e-05 s⁻¹ on Chymotrypsinogen B [2] and 0.00095 s⁻¹ at Chymotrypsinogen B [3]. Also, the Ki on Chymotrypsinogen B [5] was determined as 3.8 µM.
`CC(C)(C)OC(=O)N1C(=O)C(=O)c2ccccc21` came in with a Ki at Chymotrypsinogen B [6] of over 2000 µM.
